Reference: patent US20240180880A1, “METHODS OF USING EHMT2 INHIBITORS IN TREATING OR PREVENTING BLOOD DISORDERS” (Epizyme, Inc., priority 2017, published 2024)
Where two headings read alike, the source gives them in different places.

Tested on: 284 cell lines
Assay: cells
Description: A screen of 284 cell lines to assess the antiproliferative effect of EHMT2 inhibition was conducted by treating cell lines in 384-well format with a half-log step dilutions of Compound 205 over 10 concentrations with a maximum concentration of 0.1% v/v DMSO. Cells were plated on Day 0 and treated with compound on Day 1. Culture medium was replaced on day 7 and cells redosed. After 10-day incubation, cells were fixed and stained with nuclear dye. Automated fluorescence microscopy was carried out using a Molecular Devices ImageXpress Micro XL high-content imager, and images were collected with a 4× objective. 16-bit TIFF images were acquired and analyzed with MetaXpress 5.1.0.41 software. Cell proliferation was measured by the fluorescence intensity of the incorporated nuclear dye. Cell count IC50 is the test compound concentration at 50% of maximal response of the untreated control.

CNc1cc(C)nc(Nc2ccc(OC)c(OCCCN3CCCC3)c2)n1 [Compound 205]
IC50 (Homo sapiens, T98G, read-out: Cell Count IC50, T98G, Central Nervous System, Glioma): > 10 µM
IC50 (Homo sapiens, TCC-SUP, read-out: Cell Count IC50, TCCSUP, Bladder): 0.1 to 1 µM
IC50 (Homo sapiens, THP-1, read-out: Cell Count IC50, Thp 1, Hematopoietic, Leukemia): 1 to 10 µM
IC50 (Homo sapiens, U2OS, read-out: Cell Count IC50, U2OS, Bone, Osteosarcoma): 1 to 10 µM
IC50 (Homo sapiens, U138-MG, read-out: Cell Count IC50, U-138MG, Central Nervous System, Glioma): 1 to 10 µM
IC50 (Homo sapiens, U-87 MG, read-out: Cell Count IC50, U-87 MG, Central Nervous System, Glioma): 1 to 10 µM
IC50 (Homo sapiens, U-118-MG, read-out: Cell Count IC50, U-118 MG, Central Nervous System, Glioma): 0.1 to 1 µM
IC50 (Homo sapiens, UMUC3, read-out: Cell Count IC50, UM-UC-3, Bladder): 1 to 10 µM
IC50 (Homo sapiens, WM 266-4, read-out: Cell Count IC50, WM-266-4, Skin, Melanoma): 0.1 to 1 µM
IC50 (Homo sapiens, WiDr, read-out: Cell Count IC50, WiDr, Colon): 1 to 10 µM
IC50 (Homo sapiens, YAPC, read-out: Cell Count IC50, YAPC, Pancreas): > 10 µM
IC50 (Homo sapiens, ZR-75-1, read-out: Cell Count IC50, ZR-75-1, Breast): > 10 µM
IC50 (Hs 445, read-out: Cell Count IC50, Hs 445, Hematopoietic, Lymphoma): 1 to 10 µM
IC50 (Hs766T, read-out: Cell Count IC50, Hs 766T, Pancreas): > 10 µM
IC50 (KHOS-240S, read-out: Cell Count IC50, KHOS-240S, Bone, Osteosarcoma): 1 to 10 µM
IC50 (KPL-1, read-out: Cell Count IC50, KPL-1, Breast): > 10 µM
IC50 (MS751, read-out: Cell Count IC50, MS751, Female GU, Cervix): 1 to 10 µM
IC50 (OCUG-1, read-out: Cell Count IC50, OCUG-1, Liver): 0.1 to 1 µM
IC50 (OE21, read-out: Cell Count IC50, OE21, Head and Neck): 1 to 10 µM
IC50 (RKOAS451, read-out: Cell Count IC50, RKO-AS45-1, Colon): 1 to 10 µM
IC50 (SKO-007, read-out: Cell Count IC50, SKO-007, Hematopoietic, Myeloma): 1 to 10 µM
IC50 (TE 381.T, read-out: Cell Count IC50, TE 381.T, Soft & Connective Tissue, Sarcoma): 1 to 10 µM
IC50 (read-out: Cell Count IC50, 5637, Bladder): > 10 µM
IC50 (read-out: Cell Count IC50, A7, Skin, Melanoma): > 10 µM
IC50 (read-out: Cell Count IC50, A388, Skin, Head and Neck): 1 to 10 µM
IC50 (read-out: Cell Count IC50, AGS, Stomach): 1 to 10 µM
IC50 (read-out: Cell Count IC50, AUS65, Breast): 1 to 10 µM
IC50 (read-out: Cell Count IC50, BC-1, Hematopoietic, Lymphoma): 0.1 to 1 µM
IC50 (read-out: Cell Count IC50, C32, Skin, Melanoma): 1 to 10 µM
IC50 (read-out: Cell Count IC50, DB, Hematopoietic, Lymphoma): 0.01 to 0.1 µM
IC50 (read-out: Cell Count IC50, DK-MG, Central Nervous System, Glioma): 1 to 10 µM
IC50 (read-out: Cell Count IC50, EB2, Hematopoietic, Lymphoma): 1 to 10 µM
IC50 (read-out: Cell Count IC50, EB-3, Hematopoietic, Lymphoma): > 10 µM
IC50 (read-out: Cell Count IC50, EM-2, Hematopoietic, Leukemia): 1 to 10 µM
IC50 (read-out: Cell Count IC50, H4, Central Nervous System, Glioma): > 10 µM
IC50 (read-out: Cell Count IC50, HLE, Liver): > 10 µM
IC50 (read-out: Cell Count IC50, HLF, Liver): 1 to 10 µM
IC50 (read-out: Cell Count IC50, HOS, Bone, Osteosarcoma): 0.1 to 1 µM
IC50 (read-out: Cell Count IC50, HT-3, Female GU, Cervix): > 10 µM
IC50 (read-out: Cell Count IC50, HT, Hematopoietic, Lymphoma): 1 to 10 µM
IC50 (read-out: Cell Count IC50, Hs 229.T, Lung, NSCLC): > 10 µM
IC50 (read-out: Cell Count IC50, Hs 611.T, Hematopoietic, Lymphoma): 1 to 10 µM
IC50 (read-out: Cell Count IC50, Hs 688(A).T, Skin, Melanoma): 1 to 10 µM
IC50 (read-out: Cell Count IC50, Hs 729, Soft & Connective Tissue, Sarcoma): 0.01 to 0.1 µM
IC50 (read-out: Cell Count IC50, Hs 821.T, Soft & Connective Tissue, Sarcoma): 1 to 10 µM
IC50 (read-out: Cell Count IC50, Hs 852.T, Skin, Melanoma): > 10 µM
IC50 (read-out: Cell Count IC50, Hs 888.Sk, Bone, Osteosarcoma): > 10 µM
IC50 (read-out: Cell Count IC50, Hs 934.T, Skin, Melanoma): > 10 µM
IC50 (read-out: Cell Count IC50, Hs 936.T(C1), Skin, Melanoma): 1 to 10 µM
IC50 (read-out: Cell Count IC50, IM-9, Hematopoietic, Myeloma): > 10 µM
IC50 (read-out: Cell Count IC50, J82, Bladder): 1 to 10 µM
IC50 (read-out: Cell Count IC50, JAR, Placenta): > 10 µM
IC50 (read-out: Cell Count IC50, KLE, Female GU, Uterus): > 10 µM
IC50 (read-out: Cell Count IC50, MT-3, Colon): 0.1 to 1 µM
IC50 (read-out: Cell Count IC50, MX1, Hematopoietic, Leukemia): > 10 µM
IC50 (read-out: Cell Count IC50, NAMALWA, Hematopoietic, Lymphoma): 1 to 10 µM
IC50 (read-out: Cell Count IC50, PA-1, Female GU, Ovary): 1 to 10 µM
IC50 (read-out: Cell Count IC50, PC-3, Prostate): > 10 µM
IC50 (read-out: Cell Count IC50, RD, Soft & Connective Tissue, Sarcoma): 1 to 10 µM
IC50 (read-out: Cell Count IC50, RKO, Colon): 1 to 10 µM
IC50 (read-out: Cell Count IC50, SH-4, Skin, Melanoma): 1 to 10 µM
IC50 (read-out: Cell Count IC50, SK-PN-DW, Soft & Connective Tissue, Sarcoma): 1 to 10 µM
IC50 (read-out: Cell Count IC50, SR, Hematopoietic, Lymphoma): 1 to 10 µM
IC50 (read-out: Cell Count IC50, T24, Bladder): > 10 µM
IC50 (read-out: Cell Count IC50, TE 125.T, Soft & Connective Tissue, Sarcoma): 0.1 to 1 µM
IC50 (read-out: Cell Count IC50, TF-1, Hematopoietic, Leukemia): 1 to 10 µM
IC50 (read-out: Cell Count IC50, TT, Endocrine, Thyroid): 1 to 10 µM
IC50 (read-out: Cell Count IC50, TUR, Hematopoietic, Lymphoma): 1 to 10 µM
IC50 (read-out: Cell Count IC50, U266B1, Hematopoietic, Myeloma): 1 to 10 µM
IC50 (read-out: Cell Count IC50, VA-ES-BJ, Soft & Connective Tissue, Sarcoma): > 10 µM
IC50 (read-out: Cell Count IC50, Y79, Eve, Eye): > 10 µM
